“And” between values parts separate entries of the source, which are not always exact repeats. Equal entries are not always repeated. Bounds are passed on as bounds.

Test [1] has as its system S. aureus Newman. Briefly: MIC determination, S. aureus. Type of test: cell-based, Staphylococcus aureus. The following applies: MH broth, 22 h, 37 °C.
Test [2] has as its system C. glabrata CBS138. Nature of the test: MIC determination, C. glabrata. The following applies: RPMIG, 24 h, 35 °C. Type of test: cell-based, Candida glabrata.
Test [3] has as its system C. albicans SC5134. Nature of the test: MIC determination, C. albicans. It is filed as cell-based, Candida albicans. The note with it: RPMIG, 24 h, 35 °C.
Test [4] addresses human serum albumin (HSA) (Homo sapiens, UniProt P02768). Nature of the test: HSA fluorescence quenching (Stern-Volmer). Type of test: binding. The note with it: for Stern Volmer quenching constant KSV / association constant Ka / bimolecular quenching constant Kq / number of binding sites n: HSA, Hepes pH 7.4; for HSA fluorescence intensity quenched: two molar excesses of complex, 37 °C, 24 h, pH 7.4. The method, then:
Stock solutions of HSA were prepared by dissolving HSA in 10 mM Hepes buffer, pH 7.4. The protein concentration was determined spectrophotometrically using the molar absorption coefficient of 36,500 M^−1 cm^−1 at 280 nm. The complexes [P][AuSEt(=S)], [P][AuSEt(=Se)], [P][AuSeiPr(=S)] and [P][AuSBu(=S)] were first prepared at 1 mM concentration in DMSO due to the limited solubility of the complexes in aqueous media. A series of complex–protein solutions were prepared by adding different concentrations of gold complexes solutions to the protein solution previously prepared. After preparation of the batch complex–protein solutions, the final concentration of DMSO was 1%. For fluorescence acquisition, the final HSA concentration was […] and the gold concentrations were […]. The mixtures were stirred to ensure the formation of a homogeneous solution and then kept in an incubator at 37 °C for 24 h in the dark to stabilize and enhance the interaction time. The reference solutions without protein were prepared following the procedures described above.
Steady-state fluorescence measurements were performed with a Fluorolog Model-3.22 spectrofluorimeter from Horiba Jobin Yvon at 25 °C. All the experiments were performed in Hellma® semi-micro fluorescence cuvettes (Suprasil® quartz, path-length 10 × 4 mm, chamber volume […]) with the 10 mm path length for the excitation of the sample. The excitation and emission bandwidths were fixed at 4.0 nm, and the excitation wavelength was 295 nm to excite selectively the tryptophan 214 residue, the emission spectra were recorded from 305 to 550 nm. Buffer solutions of gold complexes in corresponding concentrations were used as reference for the measured fluorescence spectra of protein–complex mixtures. The fluorescence intensities were corrected for the absorption of the exciting light and reabsorption of the emitted light to decrease the inner filter effect using UV–visible absorption data recorded for each sample on a Jasco V-660 spectrophotometer in the range of 260 to 800 nm with 1 mm path quartz cells. More details and all the equations can be found in the SI.
F0 = 1 + (K + K )[Q] + K K [Q]2 (S1) where F0 and F are the fluorescence intensities of HSA in the absence and presence of a quencher (Au complex), respectively; KD and KS represents the dynamic and static constants, respectively, and [Q] is the quencher concentration.
When the fluorescence intensity quenching occurs by a purely static or dynamic mechanism, the following Stern-Volmer equation can be used:
F0 = 1 + K τ [Q] = 1 + K [Q] (S2) where Kq, 0 and KSV represents the bimolecular quenching constant, the fluorophore lifetime in the absence of the quencher and the Stern -Volmer quenching constant, respectively.
The relationship between the fluorescence intensity of the protein and the complex concentrati on is given by the equation:
log (F0 − F) = log K + n log[Q] […]
Table S1. Values of Stern Volmer quenching constant (Ksv), association constant (Ka) and number of binding sites (n) for the interaction for HSA with gold […]

Chain of human serum albumin (HSA) (P02768 25-609): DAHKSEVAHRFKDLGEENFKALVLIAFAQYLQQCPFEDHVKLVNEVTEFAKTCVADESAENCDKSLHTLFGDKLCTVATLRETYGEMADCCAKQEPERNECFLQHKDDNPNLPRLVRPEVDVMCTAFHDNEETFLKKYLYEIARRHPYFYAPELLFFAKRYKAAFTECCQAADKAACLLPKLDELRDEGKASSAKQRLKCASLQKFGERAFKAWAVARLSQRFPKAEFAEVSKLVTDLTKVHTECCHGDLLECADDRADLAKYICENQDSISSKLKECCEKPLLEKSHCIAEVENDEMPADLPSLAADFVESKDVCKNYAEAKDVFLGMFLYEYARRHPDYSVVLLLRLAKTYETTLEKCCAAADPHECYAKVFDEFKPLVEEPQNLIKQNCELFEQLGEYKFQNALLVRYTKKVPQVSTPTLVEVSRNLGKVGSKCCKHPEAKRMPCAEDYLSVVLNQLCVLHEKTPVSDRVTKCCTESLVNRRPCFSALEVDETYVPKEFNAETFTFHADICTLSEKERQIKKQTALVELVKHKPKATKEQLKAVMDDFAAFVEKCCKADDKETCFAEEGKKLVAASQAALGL

Consider `CCn1c2c(sc1=[Se])[S][Au-]1([S]c3sc(=[Se])n(CC)c3[S]1)[S]2.c1ccc([P+](c2ccccc2)(c2ccccc2)c2ccccc2)cc1` [[P][AuSEt(=Se)]], for which the “MIC S. aureus Newman” value in test [1] is more than 125 µg/mL. Besides, the “MIC C. glabrata CBS138” value in test [2] is more than 62.5 µg/mL. Also, in test [3], the “MIC C. albicans SC5134” value was more than 62.5 µg/mL. In test [4], the “Stern Volmer quenching constant KSV” value is 5.00 ± 0.17 x 105 L mol-1, the “association constant Ka” value is 0.52 ± 0.03 x 104 L mol-1, the “bimolecular quenching constant Kq” value is on record as 5.00 ± 0.17 x 1013 L mol-1 s-1 and the “number of binding sites n” value was 2.135. Further, the “HSA fluorescence intensity quenched” value in test [4] is given as 79.4%.

On to `CCn1c2c(sc1=S)[S][Au-]1([S]c3sc(=S)n(CC)c3[S]1)[S]2.c1ccc([P+](c2ccccc2)(c2ccccc2)c2ccccc2)cc1` [[P][AuSEt(=S)]], for which the “MIC S. aureus Newman” value in test [1] is given as more than 125 µg/mL. Moreover, in test [2], the “MIC C. glabrata CBS138” value is listed as more than 62.5 µg/mL. Also, in test [3], the “MIC C. albicans SC5134” value is reported as more than 62.5 µg/mL. Also, in test [4], the “Stern Volmer quenching constant KSV” value is listed as 6.48 ± 0.06 x 105 L mol-1, the “association constant Ka” value is recorded as 1.12 ± 0.02 x 104 L mol-1, the “bimolecular quenching constant Kq” value is given as 6.48 ± 0.06 x 1013 L mol-1 s-1 and the “number of binding sites n” value is 1.179. In addition, the “HSA fluorescence intensity quenched” value in test [4] was 76.3%.

With `CCCCn1c2c(sc1=S)[S][Au-]1([S]c3sc(=S)n(CCCC)c3[S]1)[S]2.c1ccc([P+](c2ccccc2)(c2ccccc2)c2ccccc2)cc1` [[P][AuSBu(=S)]], the “MIC S. aureus Newman” value in test [1] is more than 125 µg/mL. The “MIC C. glabrata CBS138” value in test [2] was more than 62.5 µg/mL. For the same molecule, the “MIC C. albicans SC5134” value in test [3] is listed as more than 62.5 µg/mL. In test [4], the “Stern Volmer quenching constant KSV” value was 14.9 ± 0.13 x 105 L mol-1, the “association constant Ka” value is given as 9.34 ± 0.01 x 104 L mol-1, the “bimolecular quenching constant Kq” value was 14.9 ± 0.05 x 1013 L mol-1 s-1 and the “number of binding sites n” value came to 0.738. The “HSA fluorescence intensity quenched” value in test [4] is 89.7%.

Regarding `CC(=O)OC[C@H]1O[C@@H]([S-])[C@H](OC(C)=O)[C@@H](OC(C)=O)[C@@H]1OC(C)=O.CCP(CC)CC.[Au+]` [Auranofin, reference compound], the “MIC S. aureus Newman” value in test [1] is 0.2 µg/mL and 0.173 ± 0.004 µg/mL. The “MIC C. glabrata CBS138” value in test [2] amounted to 15.2 ± 0.6 µg/mL. For the same molecule, the “MIC C. albicans SC5134” value in test [3] is 7.9 µg/mL and 7.9 ± 0.5 µg/mL.

For `CC(C)n1c2c(sc1=S)[Se][Au-]1([Se]c3sc(=S)n(C(C)C)c3[Se]1)[Se]2.c1ccc([P+](c2ccccc2)(c2ccccc2)c2ccccc2)cc1` [[P][AuSeiPr(=S)]], the “MIC S. aureus Newman” value in test [1] is more than 62.5 µg/mL. Besides, the “MIC C. glabrata CBS138” value in test [2] is more than 31.25 µg/mL. Moreover, the “MIC C. albicans SC5134” value in test [3] is listed as more than 31.25 µg/mL. In test [4], the “Stern Volmer quenching constant KSV” value is on record as 3.63 ± 0.04 x 105 L mol-1, the “association constant Ka” value is given as 1.52 ± 0.01 x 104 L mol-1, the “bimolecular quenching constant Kq” value is reported as 3.63 ± 0.01 x 1013 L mol-1 s-1 and the “number of binding sites n” value came out at 0.957. In test [4], the “HSA fluorescence intensity quenched” value is given as 60%.
